From patent US20110040086A1, “Novel Beta-Lactam Antibiotics, Methods for Their Production, and Their Use” (DRITTE PATENTPORTFOLIO BETEILIGUNGSGESELLSCHAFT MB, priority 2007, published 2011)

Legend:
[1] = test system: Bacillus megaterium SBUG 1152; experiment: agar diffusion test (Test System 1, antimicrobial effect); type: cell-based
Method in brief: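 Paper discs loaded with 10 μg, 50 μg or 100 μg of test substance (methanol or water solution) placed on nutrient agar seeded with 10^6 cells of a 17-h B. megaterium culture. After 20 h at 37° C., zone of inhibition measured as diameter in mm.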

[2] = test system: Enterococcus faecalis 769; experiment: agar diffusion test (Test System II, multi-resistant germs); type: cell-based; set-up: key: r = resistant (no detectable zone of inhibition)
Method in brief: (§1)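 Stepped amounts of each substance (10, 50, 100 μg) were applied to carrier discs from methanol or water according to solubility. These were laid on Müller-Hinton agar II inoculated at McFarland 0.5, and zones of inhibition were read following overnight incubation (18-20 h) at 37 °C.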

[3] = test system: Staphylococcus aureus 315; experiment: as above; type: cell-based; set-up: key: r = resistant (no detectable zone of inhibition)
Method in brief: as §1

B. subtilis AWD 166 = experiment: agar diffusion test (antimicrobial effect); type: cell-based, Bacillus subtilis
Method in brief: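 Inhibition zone diameters (mm) read after 20 h incubation at 37 °C. Discs carried 10 μg, 50 μg or 100 μg of test substance, dissolved in methanol or distilled water, on agar inoculated with B. subtilis AWD 166 for dense but separate colonies.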

[4] = test system: Escherichia coli SBUG 1135; experiment: agar diffusion test (Test System 1, antimicrobial effect); type: cell-based; set-up: key: r = resistant (no detectable zone of inhibition)
Method in brief: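 Disc diffusion: compound at 10 μg, 50 μg, 100 μg on sensi-discs, three per plate of nutrient agar seeded with ~10^6 E. coli SBUG 1135 (overnight culture, 17 h, 37° C, diluted 1:100). After 20 h incubation at 37° C, zone diameter recorded in mm.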

E. faecalis 945 = experiment: agar diffusion test (Test System II, multi-resistant germs); type: cell-based, Enterococcus faecalis; set-up: key: r = resistant (no detectable zone of inhibition)
Method in brief: as §1

S. aureus 36881 = experiment: as above; type: cell-based, Staphylococcus aureus; set-up: key: r = resistant (no detectable zone of inhibition)
Method in brief: as §1

S. aureus 33490 = experiment: as above; type: cell-based, Staphylococcus aureus; set-up: key: r = resistant (no detectable zone of inhibition)
Method in brief: as §1

[5] = test system: S. aureus North Germany strain; experiment: as above; type: cell-based, Staphylococcus aureus; set-up: key: r = resistant (no detectable zone of inhibition)
Method in brief: as §1

S. aureus 526 = experiment: as above; type: cell-based, Staphylococcus aureus; set-up: key: r = resistant (no detectable zone of inhibition)
Method in brief: as §1

S. aureus 34289 = experiment: as above; type: cell-based, Staphylococcus aureus; set-up: key: r = resistant (no detectable zone of inhibition)
Method in brief: as §1

S. aureus 520 = experiment: as above; type: cell-based, Staphylococcus aureus; set-up: key: r = resistant (no detectable zone of inhibition)
Method in brief: as §1

S. aureus 39105 = experiment: as above; type: cell-based, Staphylococcus aureus; set-up: key: r = resistant (no detectable zone of inhibition)
Method in brief: as §1

S. epidermidis 125 = experiment: as above; type: cell-based, Staphylococcus epidermidis; set-up: key to Diameter of zone of inhibition: r = resistant (no detectable zone of inhibition)
Method in brief: as §1

S. epidermidis 1071 = experiment: as above; type: cell-based, Staphylococcus epidermidis; set-up: key: r = resistant (no detectable zone of inhibition)
Method in brief: as §1

S. epidermidis 847 = experiment: as above; type: cell-based, Staphylococcus epidermidis; set-up: key: r = resistant (no detectable zone of inhibition)
Method in brief: as §1

S. epidermidis 1068 = experiment: as above; type: cell-based, Staphylococcus epidermidis; set-up: key: r = resistant (no detectable zone of inhibition)
Method in brief: as §1

S. epidermidis 563 = experiment: as above; type: cell-based, Staphylococcus epidermidis; set-up: key: r = resistant (no detectable zone of inhibition)
Method in brief: as §1

7-{2-[2-(2-hydroxyethylcarbamoyl)-3,6-dioxocyclohexa-1,4-dienylamino]-2-phenyl-acetylamino}-desacetoxycephalosporanic acid [1e]
Diameter of zone of inhibition ([1]; Quantity n 0.029): 20 mm | Diameter of zone of inhibition ([1]; Quantity n 0.14): 28 mm | Diameter of zone of inhibition ([1]; Quantity n 0.29): 32 mm | Diameter of zone of inhibition ([2]; Quantity n 0.029): r | Diameter of zone of inhibition ([2]; Quantity n 0.14): r | Diameter of zone of inhibition ([2]; Quantity n 0.29): r | Diameter of zone of inhibition ([3]; Quantity n 0.029): r | Diameter of zone of inhibition ([3]; Quantity n 0.14): r | Diameter of zone of inhibition ([3]; Quantity n 0.29): 12 mm | Diameter of zone of inhibition (B. subtilis AWD 166; Quantity n 0.029): 22 mm | Diameter of zone of inhibition (B. subtilis AWD 166; Quantity n 0.14): 30 mm | Diameter of zone of inhibition (B. subtilis AWD 166; Quantity n 0.29): 32 mm | Diameter of zone of inhibition ([4]; Quantity n 0.029): r^2 | Diameter of zone of inhibition ([4]; Quantity n 0.14): 16 mm | Diameter of zone of inhibition ([4]; Quantity n 0.29): 18 mm | Diameter of zone of inhibition (E. faecalis 945; Quantity n 0.029): r | Diameter of zone of inhibition (E. faecalis 945; Quantity n 0.14): r | Diameter of zone of inhibition (E. faecalis 945; Quantity n 0.29): r | Diameter of zone of inhibition (S. aureus 36881; Quantity n 0.029): r | Diameter of zone of inhibition (S. aureus 36881; Quantity n 0.14): r | Diameter of zone of inhibition (S. aureus 36881; Quantity n 0.29): 14 mm | Diameter of zone of inhibition (S. aureus 33490; Quantity n [μmol] 0.029): 8 mm | Diameter of zone of inhibition (S. aureus 33490; Quantity n [μmol] 0.14): 16 mm | Diameter of zone of inhibition (S. aureus 33490; Quantity n [μmol] 0.29): 20 mm | Diameter of zone of inhibition ([5]; Quantity n 0.029): r | Diameter of zone of inhibition ([5]; Quantity n 0.14): 10 mm | Diameter of zone of inhibition ([5]; Quantity n 0.29): 16 mm | Diameter of zone of inhibition (S. aureus 526; Quantity n 0.029): r | Diameter of zone of inhibition (S. aureus 526; Quantity n 0.14): r | Diameter of zone of inhibition (S. aureus 526; Quantity n 0.29): r | Diameter of zone of inhibition (S. aureus 34289; Quantity n [mol] 0.029): r | Diameter of zone of inhibition (S. aureus 34289; Quantity n [mol] 0.14): r | Diameter of zone of inhibition (S. aureus 34289; Quantity n [mol] 0.29): r | Diameter of zone of inhibition (S. aureus 520; Quantity n [mol] 0.029): r | Diameter of zone of inhibition (S. aureus 520; Quantity n [mol] 0.14): r | Diameter of zone of inhibition (S. aureus 520; Quantity n [mol] 0.29): r | Diameter of zone of inhibition (S. aureus 39105; Quantity n 0.029): r | Diameter of zone of inhibition (S. aureus 39105; Quantity n 0.14): r | Diameter of zone of inhibition (S. aureus 39105; Quantity n 0.29): 14 mm | Diameter of zone of inhibition (S. epidermidis 125; Quantity n 0.029): r | Diameter of zone of inhibition (S. epidermidis 125; Quantity n 0.14): 24 mm | Diameter of zone of inhibition (S. epidermidis 125; Quantity n 0.29): 28 mm | Diameter of zone of inhibition (S. epidermidis 1071; Quantity n 0.029): 10 mm | Diameter of zone of inhibition (S. epidermidis 1071; Quantity n 0.14): 18 mm | Diameter of zone of inhibition (S. epidermidis 1071; Quantity n 0.29): 20 mm | Diameter of zone of inhibition (S. epidermidis 847; Quantity n [mol] 0.029): r | Diameter of zone of inhibition (S. epidermidis 847; Quantity n [mol] 0.14): 16 mm | Diameter of zone of inhibition (S. epidermidis 847; Quantity n [mol] 0.29): 20 mm | Diameter of zone of inhibition (S. epidermidis 1068; Quantity n 0.029): r | Diameter of zone of inhibition (S. epidermidis 1068; Quantity n 0.14): 14 mm | Diameter of zone of inhibition (S. epidermidis 1068; Quantity n 0.29): 16 mm | Diameter of zone of inhibition (S. epidermidis 563; Quantity n 0.029): r | Diameter of zone of inhibition (S. epidermidis 563; Quantity n 0.14): 18 mm | Diameter of zone of inhibition (S. epidermidis 563; Quantity n 0.29): 24 mm

CC1=C(C(=O)O)N2C(=O)C(NC(=O)C(NC3=C(C(N)=O)C(=O)C=CC3=O)c3ccccc3)C2SC1 (stereo not drawn) [1f, 7-[2-(2-carbamoyl-3,6-dioxocyclohexa-1,4-dienylamino)-2-phenyl-acetylamino]-desacetoxycephalosporanic acid]
Diameter of zone of inhibition ([1]; Quantity n 0.02): 20 mm | Diameter of zone of inhibition ([1]; Quantity n 0.1): 30 mm | Diameter of zone of inhibition ([1]; Quantity n 0.2): 32 mm | Diameter of zone of inhibition ([2]; Quantity n 0.02): r | Diameter of zone of inhibition ([2]; Quantity n 0.1): r | Diameter of zone of inhibition ([2]; Quantity n 0.2): r | Diameter of zone of inhibition ([3]; Quantity n 0.02): r | Diameter of zone of inhibition ([3]; Quantity n 0.1): r | Diameter of zone of inhibition ([3]; Quantity n 0.2): 10 mm | Diameter of zone of inhibition (B. subtilis AWD 166; Quantity n 0.02): 24 mm | Diameter of zone of inhibition (B. subtilis AWD 166; Quantity n 0.1): 30 mm | Diameter of zone of inhibition (B. subtilis AWD 166; Quantity n 0.2): 32 mm | Diameter of zone of inhibition ([4]; Quantity n 0.02): r | Diameter of zone of inhibition ([4]; Quantity n 0.1): 14 mm | Diameter of zone of inhibition ([4]; Quantity n 0.2): 18 mm | Diameter of zone of inhibition (E. faecalis 945; Quantity n 0.02): r | Diameter of zone of inhibition (E. faecalis 945; Quantity n 0.1): r | Diameter of zone of inhibition (E. faecalis 945; Quantity n 0.2): r | Diameter of zone of inhibition (S. aureus 36881; Quantity n 0.02): r | Diameter of zone of inhibition (S. aureus 36881; Quantity n 0.1): r | Diameter of zone of inhibition (S. aureus 36881; Quantity n 0.2): 14 mm | Diameter of zone of inhibition (S. aureus 33490; Quantity n [μmol] 0.02): r | Diameter of zone of inhibition (S. aureus 33490; Quantity n [μmol] 0.1): 14 mm | Diameter of zone of inhibition (S. aureus 33490; Quantity n [μmol] 0.2): 16 mm | Diameter of zone of inhibition ([5]; Quantity n 0.02): r | Diameter of zone of inhibition ([5]; Quantity n 0.1): r | Diameter of zone of inhibition ([5]; Quantity n 0.2): 10 mm | Diameter of zone of inhibition (S. aureus 526; Quantity n 0.02): r | Diameter of zone of inhibition (S. aureus 526; Quantity n 0.1): r | Diameter of zone of inhibition (S. aureus 526; Quantity n 0.2): r | Diameter of zone of inhibition (S. aureus 34289; Quantity n [mol] 0.02): r | Diameter of zone of inhibition (S. aureus 34289; Quantity n [mol] 0.1): r | Diameter of zone of inhibition (S. aureus 34289; Quantity n [mol] 0.2): r | Diameter of zone of inhibition (S. aureus 520; Quantity n [mol] 0.02): r | Diameter of zone of inhibition (S. aureus 520; Quantity n [mol] 0.1): r | Diameter of zone of inhibition (S. aureus 520; Quantity n [mol] 0.2): r | Diameter of zone of inhibition (S. aureus 39105; Quantity n 0.02): r | Diameter of zone of inhibition (S. aureus 39105; Quantity n 0.1): r | Diameter of zone of inhibition (S. aureus 39105; Quantity n 0.2): 12 mm | Diameter of zone of inhibition (S. epidermidis 125; Quantity n 0.02): 10 mm | Diameter of zone of inhibition (S. epidermidis 125; Quantity n 0.1): 22 mm | Diameter of zone of inhibition (S. epidermidis 125; Quantity n 0.2): 28 mm | Diameter of zone of inhibition (S. epidermidis 1071; Quantity n 0.02): 8 mm | Diameter of zone of inhibition (S. epidermidis 1071; Quantity n 0.1): 16 mm | Diameter of zone of inhibition (S. epidermidis 1071; Quantity n 0.2): 18 mm | Diameter of zone of inhibition (S. epidermidis 847; Quantity n [mol] 0.02): r | Diameter of zone of inhibition (S. epidermidis 847; Quantity n [mol] 0.1): 16 mm | Diameter of zone of inhibition (S. epidermidis 847; Quantity n [mol] 0.2): 20 mm | Diameter of zone of inhibition (S. epidermidis 1068; Quantity n 0.02): r | Diameter of zone of inhibition (S. epidermidis 1068; Quantity n 0.1): 12 mm | Diameter of zone of inhibition (S. epidermidis 1068; Quantity n 0.2): 16 mm | Diameter of zone of inhibition (S. epidermidis 563; Quantity n 0.02): r | Diameter of zone of inhibition (S. epidermidis 563; Quantity n 0.1): 18 mm | Diameter of zone of inhibition (S. epidermidis 563; Quantity n 0.2): 24 mm
